Assay results published in patent US20220016092A1, “METHODS FOR TREATING SYMPTOMS AND DISORDERS ASSOCIATED WITH LYSOSOMAL STORAGE DISEASES” (GENZYME CORPORATION, priority 2019, published 2022).
“And” between values parts separate entries of the source, which are not always exact repeats. Equal entries are not always repeated. Where two headings read alike, the source gives them in different places.

Key:
Type in all cases: in vivo, human
[1] = Clinical study in GD-3 patients: Compound 2 concentrations in plasma and CSF; settings: 15 mg/day + imiglucerase; for AUC(0-t): read-out: AUC0-24 (mean ± SD); for Cmax: read-out: Cmax (mean ± SD)
Source text: Patients 18 years of age or older with a clinical diagnosis of GD3 and documented deficiency of acid beta-glucosidase activity having received treatment with ERT for at least 3 years and with imiglucerase (Cerezyme) at a stable monthly dose for at least 6 months prior to enrollment were included in the study. Patients must have reached the following GD therapeutic goals: hemoglobin level of ≥11.0 g/dL for females and ≥12.0 g/dL for males; platelet count ≥100 000/mm3; spleen volume <10 multiples of normal (MN), or total splenectomy (provided the splenectomy occurred >3 years prior to randomization); liver volume <1.5 MN; and no bone crisis and free of symptomatic bone disease such as bone pain attributable to osteonecrosis and/or pathological fractures within the last year. Patients must have GD3 featuring oculomotor apraxia (supranuclear gaze palsy) characterized by a horizontal saccade abnormality.
(§1) During the study patients were evaluated for safety and tolerability, CSF and plasma biomarkers (glucosylceramide, GL-1; glucosylsphingosine, lyso-GL1), pharmacokinetics, markers for systemic disease (spleen and liver volume measured by magnetic resonance imaging (MRI), platelet count, hemoglobin levels), indicia of interstitial lung disease (high resolution pulmonary computed tomography (CT)), and horizontal saccadic eye movement.
A second interim analysis was performed when the first 6 patients had reached 52-weeks of treatment, as described above in section (A). This analysis included Patients 1-5 as described in section (A), as well as new Patient 6. All six patients had L444P (1448T/C) homozygous Gaucher phenotype.

[2] = tested on: adult patients with Gaucher disease Type 3; experiment: Clinical study in GD-3 patients: markers for systemic disease (platelets, spleen volume, hemoglobin); settings: 15 mg/day + imiglucerase
Experimental: as §1
Individual patient data for platelet counts are shown in the table below (shown as 10^9 platelets/L): […]

[3] = tested on: GL-3 inclusions in skin cells; experiment: Clinical study in Fabry disease patients: skin GL-3 inclusion score by light microscopy
Experimental: A three-year open-label investigation of Compound 2 in young classic Fabry disease patients was conducted in order to evaluate the long-term safety, pharmacodynamics and exploratory efficacy of Compound 2 in adult male Fabry patients. Eleven subjects enrolled in the study, and seven subjects completed all aspects of the study. All subjects were males diagnosed with classic Fabry disease confirmed by genotype and residual alpha-galactosidase activity below detection levels (9 of the 11 had nonsense mutation in the GLA gene). All subjects had lyso-GL3 levels in plasma of at least 65 ng/mL and had no prior Fabry disease-specific treatment. The median age of subject was 24 years (range 19-37).
Each sample was scored independently by 3 pathologists for the presence of GL-3 inclusions on a four-point scale, and rated as 0 (no/trace), 1 (mild), 2 (moderate), or 3 (severe) according to Eng et al., N. Engl. J. Med. 345:9-16 (2001). A single score per patient per time point was derived by taking the score rated by the majority of the three pathologists. If a majority score could not be derived, then the median score was used (resulting in some fractional scores). Plasma samples were also analyzed for GL-3, lyso-GL-3, GL-1 and GM3 at baseline and weeks 12, 26, 52 and 156. Pain scores and abdominal symptoms were analyzed at baseline and weeks 12, 26, 52, 104 and 156 using the SF-36 scoring protocol.

[4] = human, plasma, oral, plasma, Day 1 (N = 5)
[5] = human, plasma, oral, plasma, Day 1 (N = 6)
[6] = Fabry patients, 15 mg/day oral, by week 156
[7] = Fabry, 15 mg/day, Endothelial Cells, Deep Vessels, 12 weeks
[8] = Fabry, 15 mg/day, Endothelial Cells, Deep Vessels, 26 weeks
[9] = Fabry, 15 mg/day, Endothelial Cells, Deep Vessels, 52 weeks
[10] = Fabry, 15 mg/day, Endothelial Cells, Deep Vessels, 156 weeks
[11] = Fabry, 15 mg/day, Endothelial Cells, Superficial Vessels, 12 weeks
[12] = Fabry, 15 mg/day, Endothelial Cells, Superficial Vessels, 26 weeks
[13] = Fabry, 15 mg/day, Endothelial Cells, Superficial Vessels, 52 weeks
[14] = Fabry, 15 mg/day, Endothelial Cells, Superficial Vessels, 156 weeks
[15] = Fabry, 15 mg/day, Perineurium Cells, 12 weeks
[16] = Fabry, 15 mg/day, Perineurium Cells, 26 weeks
[17] = Fabry, 15 mg/day, Perineurium Cells, 52 weeks
[18] = Fabry, 15 mg/day, Perineurium Cells, 156 weeks
[19] = Fabry, 15 mg/day, Smooth Muscle Cells, Deep Vessels, 12 weeks
[20] = Fabry, 15 mg/day, Smooth Muscle Cells, Deep Vessels, 26 weeks
[21] = Fabry, 15 mg/day, Smooth Muscle Cells, Deep Vessels, 52 weeks
[22] = Fabry, 15 mg/day, Smooth Muscle Cells, Deep Vessels, 156 weeks

SMILES: CC(C)(NC(=O)O[C@@H]1CN2CCC1CC2)c1csc(-c2ccc(F)cc2)n1 [Compound 2, (S)-quinuclidin-3-yl 2-(2-(4-fluorophenyl)thiazol-4-yl)propan-2-ylcarbamate]
- Crossing of the blood-brain barrier [1]: effectively cross the blood-brain barrier in all patients
- Time at which steady state concentration is reached in plasma and CSF [1]: ≤ 4 Week
- Concentration in CSF 2-4 hours post dose (mean ± SD) ([1]; Day 1 (N = 6)): <LLOQ
- Concentration in CSF 4 hours post dose (mean ± SD) ([1]; Week 4 (N = 5)): 4.17 ± 0.83 ng/mL
- Concentration in CSF 4 hours post dose (mean ± SD) ([1]; Week 26 (N = 4)): 4.71 ± 2.50 ng/mL
- tmax (median) ([1]; plasma, Day 1 (N = 6)): 2.00 h
- Tmax ([1]; human, oral, plasma, Day 1 (N = 5), read-out: tmax (median)): 2 h
- AUC(0-t) [1, 4]: 715 ± 225 ng·h/mL
- Cmax [1, 4]: 48.2 ± 19.2 ng/mL
- AUC(0-t) [1, 5]: 729 ± 205 ng·h/mL
- Cmax [1, 5]: 49.1 ± 17.3 ng/mL
- Hemoglobin levels ([2]; 26 weeks): no clinically meaningful changes in hemoglobin levels
- Platelet count increase in the three patients with lowest baseline platelet counts ([2]; 26 weeks): 23-42%
- Patients with reductions in splenic volume of 10% or more ([2]; 26 weeks (5 patients)): Two
- Systemic deterioration ([2]; 26 weeks, all patients): absence of systemic deterioration
- Platelet count ([2]; Week 4, individual Patients 1-5): 203 10^9 platelets/L and 243 10^9 platelets/L and 247 10^9 platelets/L and 239 10^9 platelets/L and 154 10^9 platelets/L
- Platelet count ([2]; Week 12, individual Patients 1-5): 214 10^9 platelets/L and 294 10^9 platelets/L and 264 10^9 platelets/L and 314 10^9 platelets/L and 180 10^9 platelets/L
- Platelet count ([2]; Week 26, individual Patients 1-5): 264 10^9 platelets/L and 236 10^9 platelets/L and 248 10^9 platelets/L and 267 10^9 platelets/L and 173 10^9 platelets/L
- Hemoglobin levels ([2]; Week 52): no clinically meaningful changes in hemoglobin levels
- Platelet count maintained by all patients ([2]; Week 52): greater than 120 ×10^9/L
- Patients with spleen volume reductions ([2]; Week 52 (six patients)): two
- Mean platelet concentration increase ([2]; Week 52, range −8.2% to +45.3%): 9.3%
- Platelet count, % Change from baseline to 26 weeks ([2]; individual Patients 1-5): +42% and +23% and −4.3% and −13% and +36%
- Platelet counts, average rise from baseline ([2]; week 26): 17%
- Patients with a 1-point reduction in skin GL-3 score [3, 6]: five
- Patients with complete clearance of GL-3 inclusions [3, 6]: two
- Patients with no change in skin GL-3 score [3, 6]: one
- Number of patients: skin GL-3 Score 1 unchanged [3, 7]: 1/9 (11%)
- Number of patients: skin GL-3 Score 2 dropped to 1 [3, 7]: 2/9 (22%)
- Number of patients: skin GL-3 Score 2 unchanged [3, 7]: 6/9 (67%)
- Number of patients: skin GL-3 Score 1 unchanged [3, 8]: 1/9 (11%)
- Number of patients: skin GL-3 Score 2 dropped to 1 [3, 8]: 2/9 (22%)
- Number of patients: skin GL-3 Score 2 unchanged [3, 8]: 6/9 (67%)
- Number of patients: skin GL-3 Score 2 dropped to 1 [3, 9]: 3/6 (50%)
- Number of patients: skin GL-3 Score 2 dropped to 1.5 [3, 9]: 1/6 (17%)
- Number of patients: skin GL-3 Score 2 unchanged [3, 9]: 2/6 (33%)
- Number of patients: skin GL-3 Score 1 unchanged [3, 10]: 1/6 (17%)
- Number of patients: skin GL-3 Score 2 dropped to 0.5 [3, 10]: 1/6 (17%)
- Number of patients: skin GL-3 Score 2 dropped to 1 [3, 10]: 3/6 (50%)
- Number of patients: skin GL-3 Score 2 unchanged [3, 10]: 1/6 (17%)
- Number of patients: skin GL-3 Score 1 raised to 2 [3, 11]: 1/9 (11%)
- Number of patients: skin GL-3 Score 1 unchanged [3, 11]: 4/9 (44%)
- Number of patients: skin GL-3 Score 2 dropped to 1 [3, 11]: 3/9 (33%)
- Number of patients: skin GL-3 Score 2 unchanged [3, 11]: 1/9 (11%)
- Number of patients: skin GL-3 Score 1 raised to 2 [3, 12]: 1/9 (11%)
- Number of patients: skin GL-3 Score 1 unchanged [3, 12]: 4/9 (44%)
- Number of patients: skin GL-3 Score 2 dropped to 1 [3, 12]: 3/9 (33%)
- Number of patients: skin GL-3 Score 2 unchanged [3, 12]: 1/9 (11%)
- Number of patients: skin GL-3 Score 1 unchanged [3, 13]: 3/6 (50%)
- Number of patients: skin GL-3 Score 2 dropped to 1 [3, 13]: 2/6 (33%)
- Number of patients: skin GL-3 Score 2 unchanged [3, 13]: 1/6 (17%)
- Number of patients: skin GL-3 Score 1 dropped to 0 [3, 14]: 2/6 (33%)
- Number of patients: skin GL-3 Score 1 unchanged [3, 14]: 1/6 (17%)
- Number of patients: skin GL-3 Score 2 dropped to 1 [3, 14]: 3/6 (50%)
- Number of patients: skin GL-3 Score 1 raised to 2 [3, 15]: 1/9 (11%)
- Number of patients: skin GL-3 Score 2 unchanged [3, 15]: 8/9 (89%)
- Number of patients: skin GL-3 Score 1 raised to 2 [3, 16]: 1/9 (11%)
- Number of patients: skin GL-3 Score 2 unchanged [3, 16]: 8/9 (89%)
- Number of patients: skin GL-3 Score 1 raised to 2 [3, 17]: 1/6 (17%)
- Number of patients: skin GL-3 Score 2 dropped to 1 [3, 17]: 1/6 (17%)
- Number of patients: skin GL-3 Score 2 dropped to 1.5 [3, 17]: 1/6 (17%)
- Number of patients: skin GL-3 Score 2 unchanged [3, 17]: 3/6 (50%)
- Number of patients: skin GL-3 Score 1 unchanged [3, 18]: 1/6 (17%)
- Number of patients: skin GL-3 Score 2 dropped to 1.5 [3, 18]: 1/6 (17%)
- Number of patients: skin GL-3 Score 2 unchanged [3, 18]: 4/6 (67%)
- Number of patients: skin GL-3 Score 1.5 raised to 2 [3, 19]: 2/9 (22%)
- Number of patients: skin GL-3 Score 2 unchanged [3, 19]: 7/9 (78%)
- Number of patients: skin GL-3 Score 1.5 unchanged [3, 20]: 2/9 (22%)
- Number of patients: skin GL-3 Score 2 unchanged [3, 20]: 7/9 (78%)
- Number of patients: skin GL-3 Score 1.5 raised to 2 [3, 21]: 1/5 (20%)
- Number of patients: skin GL-3 Score 2 unchanged [3, 21]: 4/5 (80%)
- Number of patients: skin GL-3 Score 1.5 raised to 2 [3, 22]: 1/6 (17%)
- Number of patients: skin GL-3 Score 2 dropped to 1 [3, 22]: 1/6 (17%)
- Number of patients: skin GL-3 Score 2 dropped to 1.5 [3, 22]: 1/6 (17%)
- Number of patients: skin GL-3 Score 2 unchanged [3, 22]: 3/6 (50%)
